Each structure is given as a SMILES string. Several values for one entry are separate records, joined by “and”; a condition that tells them apart may be missing. Equal values may be shown once.

Assay [1] concerns the target EGFR (human) (UniProt P00533). To be noted: skov-3.
Assay [2] deals with EGFR (human) (UniProt P00533). To be noted: a431.
For assay [3], the target named is EGFR (human) (UniProt P00533). To be noted: igrov-1.
The next assay addresses EGFR (mouse) (UniProt P00533). The following applies: nih3t3.
For a further assay, the target named is EGFR (UniProt P00533).
The target of assay [4] is EGFR (human) (UniProt P00533). To be noted: a431. This is another data set of the same source.

EGFR, sequence (P00533 whole entry, looked up): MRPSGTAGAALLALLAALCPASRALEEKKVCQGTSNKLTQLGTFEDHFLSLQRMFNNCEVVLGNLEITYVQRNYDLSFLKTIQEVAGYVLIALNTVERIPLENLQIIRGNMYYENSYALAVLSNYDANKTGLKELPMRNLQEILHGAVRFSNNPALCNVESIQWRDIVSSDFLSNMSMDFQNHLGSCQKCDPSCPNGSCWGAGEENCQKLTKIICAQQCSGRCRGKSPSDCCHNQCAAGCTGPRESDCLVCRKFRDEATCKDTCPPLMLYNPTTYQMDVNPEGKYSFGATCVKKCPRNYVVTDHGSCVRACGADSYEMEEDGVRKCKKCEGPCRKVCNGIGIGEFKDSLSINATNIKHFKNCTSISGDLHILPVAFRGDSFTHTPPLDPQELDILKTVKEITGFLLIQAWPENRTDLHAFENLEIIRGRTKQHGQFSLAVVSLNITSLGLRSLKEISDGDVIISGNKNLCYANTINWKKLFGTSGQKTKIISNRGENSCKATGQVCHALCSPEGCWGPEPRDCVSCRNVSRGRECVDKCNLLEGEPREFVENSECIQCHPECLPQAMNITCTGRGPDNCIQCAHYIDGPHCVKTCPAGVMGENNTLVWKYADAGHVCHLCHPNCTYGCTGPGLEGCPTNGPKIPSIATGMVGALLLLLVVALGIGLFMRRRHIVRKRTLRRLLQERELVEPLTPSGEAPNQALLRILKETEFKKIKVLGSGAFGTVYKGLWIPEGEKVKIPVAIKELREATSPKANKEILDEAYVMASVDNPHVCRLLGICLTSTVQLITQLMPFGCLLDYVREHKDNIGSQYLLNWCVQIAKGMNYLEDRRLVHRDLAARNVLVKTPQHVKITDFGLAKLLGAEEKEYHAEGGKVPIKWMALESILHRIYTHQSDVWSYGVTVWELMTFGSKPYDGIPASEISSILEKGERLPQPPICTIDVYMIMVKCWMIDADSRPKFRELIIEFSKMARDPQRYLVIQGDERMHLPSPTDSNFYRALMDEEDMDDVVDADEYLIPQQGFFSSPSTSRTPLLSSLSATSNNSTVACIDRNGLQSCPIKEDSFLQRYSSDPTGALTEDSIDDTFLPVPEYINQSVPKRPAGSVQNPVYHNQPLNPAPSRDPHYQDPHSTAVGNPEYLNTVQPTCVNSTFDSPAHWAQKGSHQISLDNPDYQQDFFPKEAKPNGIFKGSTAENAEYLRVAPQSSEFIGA
EGFR (human), sequence (P00533 whole entry, looked up): as above

As for `COc1ccc(OC)c2c1CC(C)=CCC[C@]13O[C@H]1[C@H]2OC3=O`, the half-maximal inhibitory concentration (IC50) at EGFR (human) [1], at EGFR (human) [2] and on EGFR (human) [3] was greater than 100 µM throughout.
In the case of `CC1=CCC[C@]23O[C@H]2[C@@H](OC3=O)C2=C(C1)C(=O)C(O)=CC2=O`, the IC50 with EGFR (mouse) worked out at 0.02 µM; against EGFR (human) [1], 1 µM; on EGFR (human) [2] it was 0.1 µM; against EGFR (human) [3], 0.8 µM; against EGFR, 5.5 µM.
With `CC1=CCC[C@]23O[C@H]2[C@@H](OC3=O)C2=C(C1)C(=O)C=CC2=O`, the IC50 on EGFR (human) [1] was 21.9 µM; against EGFR (human) [2], 3.6 µM; on EGFR (human) [4], 100 µM and > 100 µM; on EGFR (human) [3], 6.1 µM; against EGFR it was 27 µM.
As to `CC(=O)Oc1ccc(OC(C)=O)c2c1CC(C)=CCC[C@]13O[C@H]1[C@H]2OC3=O`, the IC50 is 8.3 µM with EGFR (mouse); 41.2 µM against EGFR (human) [1]; 15.8 µM against EGFR (human) [2]; 22 µM and 100 µM against EGFR (human) [4]; 22.4 µM at EGFR (human) [3].
`CC1=CCC[C@]23O[C@H]2[C@@H](OC3=O)c2c(O)ccc(O)c2C1`: the IC50 against EGFR is 26 µM.

For orientation: IC50 means the concentration needed to halve the response being measured. Low values mean higher potency, high ones lower potency.

These data come from the Kinase Knowledgebase extract (Sharma et al. 2016).
